Earlier results on 1 compound are cited in patent US20190231795A1, “METHODS FOR TREATING CANCER AND PREDICTING DRUG RESPONSIVENESS IN CANCER PATIENTS” (LiPlasome Pharma ApS, priority 2018, published 2019).

Data set [1] deals with DNA platinum adducts (GG-Pt) in tumor tissue. As to conditions: comparison value.
Data set [2] has as its system metastatic breast cancer.

For the compound `N.N.[Cl][Pt][Cl]` [conventional cisplatin, cisplatin], the “increase of DNA-platinum (GG-Pt) in tumor tissue seen with conventional cisplatin” value in data set [1] is recorded as 4-6 fold. In addition, the response rate in data set [2] is given as 10%.
